# Assay results: patent US20100292205A1, “Pyrimidone Compounds As GSK-3 Inhibitors” (PFIZER INC., priority 2006, published 2010)
# Biological target: T1, Recombinant human GSK3β (Homo sapiens, UniProt P49841)
# T1 construct: His-tag; made in house; host or cells: Sf9 insect cells / baculovirus
# Experiment: GSK-3β (Glycogen Synthase Kinase) cell free enzyme assay
# Type: biochemical
# Conditions: 1 μM; Examples 236-262; read-out: Percent inhibition at 1 μM
# Method in brief: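 This cell-free kinase assay measured [33P] transfer from [33P]ATP gamma phosphate into the biotinylated peptide bio-LC-S-R-H-S-S-P-H-Q-pS-E-D-E-E-E-OH. After 60 min at RT, reactions were stopped with 0.66 volume of PBS lacking Ca or Mg containing 12.5 mM EDTA, 0.25% Triton-X 100, 125 uM ATP and 6.2 mg/ml streptavidin SPA beads. Bead-bound radioactivity was counted as CPM on a Trilux scintillation counter.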
# T1 sequence (P49841 whole entry): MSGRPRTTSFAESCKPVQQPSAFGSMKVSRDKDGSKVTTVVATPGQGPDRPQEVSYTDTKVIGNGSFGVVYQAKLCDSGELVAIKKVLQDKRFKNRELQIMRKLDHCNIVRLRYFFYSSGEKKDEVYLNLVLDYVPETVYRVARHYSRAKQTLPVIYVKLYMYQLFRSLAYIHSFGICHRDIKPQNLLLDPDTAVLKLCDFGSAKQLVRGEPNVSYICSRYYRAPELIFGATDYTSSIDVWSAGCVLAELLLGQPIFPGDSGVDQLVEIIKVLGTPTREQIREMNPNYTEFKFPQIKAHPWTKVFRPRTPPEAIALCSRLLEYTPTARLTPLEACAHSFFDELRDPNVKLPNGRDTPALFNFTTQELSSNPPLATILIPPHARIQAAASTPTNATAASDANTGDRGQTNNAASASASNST
row,Structure (SMILES),inhibition at 1 µM
1,"CN1[C@@H]2CC[C@H]1CN(c1nc(-c3ccncc3)cc(=O)n1C)C2 [Example 238, 3-Methyl-2-[(1R,5S)-8-methyl-38-diazabicyclo[3.2.1]oct-3-yl]-6-pyridin-4-ylpyrimidin-4(3H)-one]",47%
2,"CN1C[C@H]2CC[C@@H](C1)N2c1nc(-c2ccncc2)cc(=O)n1C [Example 239, 3-Methyl-2-[(1R,5S)-3-methyl-38-diazabicyclo[3.2.1]oct-8-yl]-6-pyridin-4-ylpyrimidin-4(3H)-one]",57%
3,"CCN(c1nc(-c2ccncc2)cc(=O)n1C)C1CCN(C)CC1 [Example 248, 2-[Ethyl(1-methylpiperidin-4-yl)amino]-3-methyl-6-pyridin-4-ylpyrimidin-4(3H)-one]",39%
4,"Cn1c(N2CC[C@@H]3CN(Cc4ccccc4)C[C@@H]32)nc(-c2ccncc2)cc1=O [Example 251, 2-[(3a,R6,aR)-5-Benzylhexahydropyrro-lo[34-b]pyrrol-1(2H)-yl]-3-methyl-6-pyridin-4-ylpyrimidin-4(3H)-one]",47%
5,"Cn1c(N[C@@H]2CN(Cc3ccccc3)C[C@@H]2F)nc(-c2ccncc2)cc1=O [Example 253, 2-{[(3R,4S)-1-Benzyl-4-fluoropyrrolidin-3-yl]amino}-3-methyl-6-pyridin-4-ylpyrimidin-4(3H)-one]",91%
6,"CN(c1nc(-c2ccncc2)cc(=O)n1C)[C@H]1CC[C@H]2N(Cc3ccccc3)CC[C@@]2(C)C1 [Example 254, 2-{[(3a,S5,S7,aR)-1-Benzyl-3a-methyloctahydro-1H-indol-5-yl](methyl)amino}-3-methyl-6-pyridin-4-ylpyrimidin-4(3H)-one]",47%
7,"CN(c1nc(-c2ccncc2)cc(=O)n1C)C1CCN(Cc2ccccc2)C1 (stereo not drawn) [Example 256, 2-[(1-Benzylpyrrolidin-3-yl)(methyl)amino]-3-methyl-6-pyridin-4-ylpyrimidin-4(3H)-one]",83%
8,"CCN(c1nc(-c2ccncc2)cc(=O)n1C)C1CCN(Cc2ccccc2)C1 (stereo not drawn) [Example 257, 2-[(1-Benzylpyrrolidin-3-yl)(ethyl)amino]-3-methyl-6-pyridin-4-ylpyrimidin-4(3H)-one]",71%
9,"CN(c1nc(-c2ccncc2)cc(=O)n1C)[C@@H]1CC[C@H]2N(Cc3ccccc3)CC[C@@]2(C)C1 [Example 258, 2-{[(3a,S5,R7,aR)-1-Benzyl-3a-methyloctahydro-1H-indol-5-yl](methyl)amino}-3-methyl-6-pyridin-4-ylpyrimidin-4(3H)-one]",43%
10,"CCN(c1nc(-c2ccncc2)cc(=O)n1C)C1CCCN(Cc2ccccc2)CC1 (stereo not drawn) [Example 259, 2-[(1-Benzylazepan-4-yl)(ethyl)amino]-3-methyl-6-pyridin-4-ylpyrimidin-4(3H)-one]",83%
11,"CCN(c1nc(-c2ccncc2)cc(=O)n1C)C1CCN(Cc2ccccc2)CC1 [Example 260, 2-[(1-Benzylpiperidin-4-yl)(ethyl)amino]-3′-methyl-6-pyridin-4-ylpyrimidin-4(3H)-one]",44%
12,"Cn1c(NCC2CCN(Cc3ccccc3)C2)nc(-c2ccncc2)cc1=O (stereo not drawn) [Example 261, 2-{[(1-Benzylpyrrolidin-3-yl)methyl]amino}-3-methyl-6-pyridin-4-ylpyrimidin-4(3H)-one]",70%

# Other lines, results leading:
row,inhibition at 1 µM,Structure (SMILES)
1,63%,"Cn1c(NC2CCN(Cc3ccccc3)C2)nc(-c2ccncc2)cc1=O (stereo not drawn) [Example 236, 2-[(1-Benzylpyrrolidin-3-yl)amino]-3-methyl-6-pyridin-4-ylpyrimidin-4(3H)-one]"
2,84%,"Cn1c(NC2CCCN(Cc3ccccc3)CC2)nc(-c2ccncc2)cc1=O (stereo not drawn) [Example 237, 2-[(1-Benzylazepan-4-yl)amino]-3-methyl-6-pyridin-4-ylpyrimidin-4(3H)-one]"
3,49%,"CN1CCC(Nc2nc(-c3ccncc3)cc(=O)n2C)C1 (stereo not drawn) [Example 240, 3-Methyl-2-[(1-methylpyrrolidin-3-yl)amino]-6-pyridin-4-ylpyrimidin-4(3H)-one]"
4,72%,"CN1CCCC(Nc2nc(-c3ccncc3)cc(=O)n2C)CC1 (stereo not drawn) [Example 241, 3-Methyl-2-[(1-methylazepan-4-yl)amino]-6-pyridin-4-ylpyrimidin-4(3H)-one]"
5,43%,"CN1C[C@H](Nc2nc(-c3ccncc3)cc(=O)n2C)[C@@H](F)C1 [Example 242, 2-{[(3S,4S)-4-Fluoro-1-methylpyrrolidin-3-yl]amino}-3-methyl-6-pyridin-4-ylpyrimidin-4(3H)-one]"
6,60%,"CN1CCCC(N(C)c2nc(-c3ccncc3)cc(=O)n2C)CC1 (stereo not drawn) [Example 243, 3-Methyl-2-[methyl(1-methylazepan-4-yl)amino]-6-pyridin-4-ylpyrimidin-4(3H)-one]"
7,60%,"CCN(c1nc(-c2ccncc2)cc(=O)n1C)C1CCN(C)C1 (stereo not drawn) [Example 244, 2-[ethyl(1-Methylpyrrolidin-3-yl)amino]-3-methyl-6-pyridin-4-ylpyrimidin-4(3H)-one]"
8,52%,"CN1CCC(N(C)c2nc(-c3ccncc3)cc(=O)n2C)C1 (stereo not drawn) [Example 245, 3-Methyl-2-[methyl(1-methylpyrrolidin-3-yl)amino]-6-pyridin-4-ylpyrimidin-4(3H)-one]"
9,67%,"CN1C[C@H](F)[C@H](Nc2nc(-c3ccncc3)cc(=O)n2C)C1 [Example 246, 2-{[(3R,4S)-4-Fluoro-1-methylpyrrolidin-3-yl]amino}-3-methyl-6-pyridin-4-ylpyrimidin-4(3H)-one]"
10,78%,"CCN(c1nc(-c2ccncc2)cc(=O)n1C)C1CCCN(C)CC1 (stereo not drawn) [Example 247, 2-[Ethyl(1-methylazepan-4-yl)amino]-3-methyl-6-pyridin-4-ylpyrimidin-4(3H)-one]"
11,33%,"CN1CC(CNc2nc(-c3ccncc3)cc(=O)n2C)C1 [Example 249, 3-Methyl-2-{[(1-methylazetidin-3-yl)methyl]amino}-6-pyridin-4-ylpyrimidin-4(3H)-one]"
12,74%,"Cn1c(NC2CCCCN(Cc3ccccc3)C2)nc(-c2ccncc2)cc1=O (stereo not drawn) [Example 252, 2-[(1-Benzylazepan-3-yl)amino]-3-methyl-6-pyridin-4-ylpyrimidin-4(3H)-one]"
13,76%,"CN(c1nc(-c2ccncc2)cc(=O)n1C)C1CCCN(Cc2ccccc2)CC1 (stereo not drawn) [Example 255, 2-[(1-Benzylazepan-4-yl)(methyl)amino]-3-methyl-6-pyridin-4-ylpyrimidin-4(3H)-one]"
14,48%,"Cn1c(N[C@@H]2CC[C@@H](NCc3ccccc3)C2)nc(-c2ccncc2)cc1=O [Example 262, 2-{[(1R,3R)-3-(Benzylamino)cyclopen-tyl]amino}-3-methyl-6-pyridin-4-ylpyrimidin-4(3H)-one]"

# Same assay, conditions: cell free enzyme assay; Examples 222-234
row,Structure (SMILES),IC50
1,"CCOC(=O)N1CCC[C@@H](N(C)c2nc(-c3ccncn3)cc(=O)n2C)C1 [Example 230, Ethyl (3R)-3-[methyl(1-methyl-6-oxo-1,6-dihydro-4,4′-bipyrimidin-2-yl)amino]piperidine-1-carboxylate]",0.95 nM
2,"Cn1c(N[C@@H]2CCCN(C(=O)OCc3ccncc3)C2)nc(-c2ccncn2)cc1=O [Example 233, Pyridin-4-ylmethyl (3R)-3-[(1-methyl-6-oxo-1,6-dihydro-4,4′-bipyrimidin-2-yl)amino]piperidine-1-carboxylate]",5 nM
3,"CN(c1nc(-c2ccncn2)cc(=O)n1C)[C@@H]1CCCN(C(=O)C2CC2)C1 [Example 234, 2-{[(3R)-1-(Cyclopropylcarbonyl)piperi-din-3-yl](methyl)amino}-1-methyl-4,4′-bipyrimidin-6(1H)-one]",1.68 nM

# More lines, now with the values ahead:
row,IC50,Structure (SMILES)
1,0.994 nM,"COC(=O)N1CCC[C@@H](Nc2nc(-c3ccncn3)cc(=O)n2C)C1 [Example 228, Methyl (3R)-3-[(1-methyl-6-oxo-1,6-dihydro-4,4′-bipyrimidin-2-yl)amino]piperidine-1-carboxylate]"
2,1.99 nM,"CCOC(=O)N1CCC[C@@H](Nc2nc(-c3ccncn3)cc(=O)n2C)C1 [Example 229, Ethyl (3R)-3-[(1-methyl-6-oxo-1,6-dihydro-4,4′-bipyrimidin-2-yl)amino]piperidine-1-carboxylate]"
3,1.15 nM,"CCOC(=O)N1CCC[C@@H](N(C)c2nc(-c3ccncc3)cc(=O)n2C)C1 [Example 231, Ethyl (3R)-3-[methyl(1-methyl-6-oxo-4-pyridin-4-yl-1,6-dihydropyrimidin-2-yl)amino]piperidine-1-carboxylate]"
4,0.854 nM,"COC(=O)N1CCC[C@@H](Nc2nc(-c3ccncc3)cc(=O)n2C)C1 [Example 232, Methyl (3R)-3-[(1-methyl-6-oxo-4-pyridin-4-yl-1,6-dihydropyrimidin-2-yl)amino]piperidine-1-carboxylate]"

# Same assay, conditions: cell free enzyme assay; Examples 265-291
row,IC50,Structure (SMILES)
1,52.4 nM,"CCc1cn2nc(N3C[C@@H]4[C@H](C3)[C@H]4N(C)c3nc(-c4ccncc4F)cc(=O)n3C)ccc2n1 [Example 265, 2-{[(1R,5S,6s)-3-(2-Ethylimidazo[1,2-b]pyridazin-6-yl)-3-azabicyclo[3.1.0]hex-6-yl](methyl)amino}-6-(3-fluoropyridin-4-yl)-3-methylpyrimidin-4(3H)-one]"
2,16.7 nM,"CN(c1nc(-c2ccncc2F)cc(=O)n1C)[C@H]1[C@@H]2CN(c3nc4cc(F)ccc4n3C)C[C@@H]21 [Example 266, 2-{[(1R,5S,6s)-3-(5-Fluoro-1-methyl-1H-benzimidazol-2-yl)-3-azabicyclo[3.1.0]hex-6-yl](methyl)amino}-6-(3-fluoropyridin-4-yl)-3-methylpyrimidin-4(3H)-one]"
3,14.2 nM,"COc1ccc2oc(N3C[C@@H]4[C@H](C3)[C@H]4N(C)c3nc(-c4ccncc4F)cc(=O)n3C)nc2c1 [Example 267, 6-(3-Fluoropyridin-4-yl)-2-{[(1R,5S,6s)-3-(5-methoxy-1,3-benzoxazol-2-yl)-3-azabicyclo[3.1.0]hex-6-yl](methyl)amino}-3-methylpyrimidin-4(3H)-one]"
